{"source": "patent US6420557B1", "about": "“Crystalline therapeutic agent” (Pfizer Inc., priority 2000, dated 2002)", "key": {"cGMP PDE5": {"target": "cGMP PDE5 (Homo sapiens, UniProt O76074)", "conditions": "statement in words, as detailed in WO 01/27113; cited from earlier work"}, "[1]": {"experiment": "early investigations of the crystals (hygroscopicity, stability, formulation properties)", "assay_type": "physicochemical", "conditions": "crystals having the XRD pattern of Table 1"}}}
{"smiles": "CCOc1ncc(S(=O)(=O)N2CCN(CC)CC2)cc1-c1nc2c(CC)n(CCOC)nc2c(=O)[nH]1", "note": "[Example 1, 1-{6-ethoxy-5-[3-ethyl-6,7-dihydro-2-(2-methoxyethyl)-7-oxo-2H-pyrazolo[4,3-d]pyrimidin-5-yl]-3-pyridylsulfonyl}-4-ethylpiperazine]", "values": [{"measurement": "cGMP PDE5 inhibitor potency and selectivity", "setting": "cGMP PDE5", "value": "potent and selective"}, {"measurement": "formulation properties", "setting": "[1]", "value": "good formulation properties"}, {"measurement": "hygroscopicity", "setting": "[1]", "value": "non-hygroscopic"}, {"measurement": "stability", "setting": "[1]", "value": "stable"}]}
